Data taken from patent US11452727B2, “Combination therapy for treating cancer” (Epizyme, Inc., priority 2017, dated 2022).

Assays:
Assay in all cases: In vitro combination study with tazemetostat, cell proliferation (Cell Titer Glo)
A427 = conditions: A427; 7 days tazemetostat pre-treatment, 6 days co-treatment with second agent
Method: (§1) Initial proliferation studies were performed to determine the IC50 of tazemetostat in each cell line. For the screen, tazemetostat was used at concentrations bracketed around the IC50 value. If 50% inhibitory concentration was not reached then tazemetostat was tested starting at 10 μM.
(§2) In order to study the effect of dual combination of tazemetostat and a second agent on cell proliferation, cells in log-linear phase growth rate were pre-treated with various concentrations of tazemetostat or DMSO for 7 days in flasks, plated in 384-well plates in the absence of compounds and co-treated on day 8 with tazemetostat or DMSO and the second agent serially diluted for additional 6 days (as depicted in FIG. 1). On day 15, plates were developed for endpoint analysis using Cell Titer Glo to measure ATP content, which was used as an indicator of cell viability. DMSO concentration was kept constant throughout the assay at 0.15% v/v.
(§3) All cell lines were obtained from American Type Culture Collection (ATCC; Rockville, Md.). […] A427, Calu-3, Calu-6 cell lines were cultured in EMEM+10% Fetal bovine serum (FBS)+1% v/v Penicillin/Streptomycin (P/S).

A549 = conditions: 7 days tazemetostat pre-treatment, 6 days co-treatment with second agent
Method: as §1, §2

NCI-H1299 = conditions: 7 days tazemetostat pre-treatment, 6 days co-treatment with second agent
NCI-H1573 = conditions: 7 days tazemetostat pre-treatment, 6 days co-treatment with second agent
NCI-H1703 = conditions: 7 days tazemetostat pre-treatment, 6 days co-treatment with second agent
Method: as §1, §2

NCI-H1793 = conditions: 7 days tazemetostat pre-treatment, 6 days co-treatment with second agent
Method: as §1, §2
NCI-H1573 was cultured in DMEM: F12 Medium containing the following components: 0.02 mg/ml insulin, 0.01 mg/ml transferrin, 25 nM sodium selenite, 50 nM Hydrocortisone, 1 ng/ml Epidermal Growth Factor, 0.01 mM ethanolamine, 0.01 mM phosphorylethanolamine, 100 pM triiodothyronine, 0.5% (w/v) bovine serum albumin, 0.5 mM sodium pyruvate, 4.5 mM L-glutamine and 1% v/v Pen/Strep.

NCI-H1993 = conditions: 7 days tazemetostat pre-treatment, 6 days co-treatment with second agent
Method: as §1, §2

NCI-H2030 = conditions: 7 days tazemetostat pre-treatment, 6 days co-treatment with second agent
Method: as §1, §2

NCI-H2110 = conditions: 7 days tazemetostat pre-treatment, 6 days co-treatment with second agent
NCI-H2122 = conditions: 7 days tazemetostat pre-treatment, 6 days co-treatment with second agent
Method: as §1, §2, §3

NCI-H23 = conditions: 7 days tazemetostat pre-treatment, 6 days co-treatment with second agent
NCI-H460 = conditions: 7 days tazemetostat pre-treatment, 6 days co-treatment with second agent
NCI-H522 = conditions: 7 days tazemetostat pre-treatment, 6 days co-treatment with second agent
NCI-H661 = conditions: 7 days tazemetostat pre-treatment, 6 days co-treatment with second agent
Method: as §1, §2, §3

NCI-H838 = conditions: 7 days tazemetostat pre-treatment, 6 days co-treatment with second agent
Calu-3 = conditions: 7 days tazemetostat pre-treatment, 6 days co-treatment with second agent
Calu-6 = conditions: 7 days tazemetostat pre-treatment, 6 days co-treatment with second agent
Method: as §1, §2

HCC827 = conditions: 7 days tazemetostat pre-treatment, 6 days co-treatment with second agent

Compound | combinatorial effect with tazemetostat (Loewe volume class) (A427) | combinatorial effect with tazemetostat (Loewe volume class) (A549) | combinatorial effect with tazemetostat (Loewe volume class) (NCI-H1299) | combinatorial effect with tazemetostat (Loewe volume class) (NCI-H1573) | combinatorial effect with tazemetostat (Loewe volume class) (NCI-H1703) | combinatorial effect with tazemetostat (Loewe volume class) (NCI-H1793) | combinatorial effect with tazemetostat (Loewe volume class) (NCI-H1993) | combinatorial effect with tazemetostat (Loewe volume class) (NCI-H2030) | combinatorial effect with tazemetostat (Loewe volume class) (NCI-H2110) | combinatorial effect with tazemetostat (Loewe volume class) (NCI-H2122) | combinatorial effect with tazemetostat (Loewe volume class) (NCI-H23) | combinatorial effect with tazemetostat (Loewe volume class) (NCI-H460) | combinatorial effect with tazemetostat (Loewe volume class) (NCI-H522) | combinatorial effect with tazemetostat (Loewe volume class) (NCI-H661) | combinatorial effect with tazemetostat (Loewe volume class) (NCI-H838) | combinatorial effect with tazemetostat (Loewe volume class) (Calu-3) | combinatorial effect with tazemetostat (Loewe volume class) (Calu-6) | combinatorial effect with tazemetostat (Loewe volume class) (HCC827)
CC(=O)Nc1cccc(-n2c(=O)n(C3CC3)c(=O)c3c(Nc4ccc(I)cc4F)n(C)c(=O)c(C)c32)c1 [Trametinib, trametinib] | Syn. (Loewe volumes greater than 1 denoted “synergy”) | Anta. (volumes <−1 denoted “antagonism”) | Syn. (Loewe volumes greater than 1 denoted “synergy”) | Syn. (Loewe volumes greater than 1 denoted “synergy”) | Syn. (Loewe volumes greater than 1 denoted “synergy”) | Syn. (Loewe volumes greater than 1 denoted “synergy”) | Syn. (Loewe volumes greater than 1 denoted “synergy”) | Syn. (Loewe volumes greater than 1 denoted “synergy”) | Syn. (Loewe volumes greater than 1 denoted “synergy”) | Anta. (volumes <−1 denoted “antagonism”) | Add. (A value between −1 and 1 denoted “additivity”) | Anta. (volumes <−1 denoted “antagonism”) | Syn. (Loewe volumes greater than 1 denoted “synergy”) | Add. (A value between −1 and 1 denoted “additivity”) | Syn. (Loewe volumes greater than 1 denoted “synergy”) | Syn. (Loewe volumes greater than 1 denoted “synergy”) | Add. (A value between −1 and 1 denoted “additivity”) | Syn. (Loewe volumes greater than 1 denoted “synergy”)
O=C(CCCCCCC(=O)Nc1ccccc1)NO [Vorinostat, vorinostat] | Syn. (Loewe volumes greater than 1 denoted “synergy”) | Add. (A value between −1 and 1 denoted “additivity”) | Add. (A value between −1 and 1 denoted “additivity”) | Syn. (Loewe volumes greater than 1 denoted “synergy”) | Syn. (Loewe volumes greater than 1 denoted “synergy”) | Syn. (Loewe volumes greater than 1 denoted “synergy”) | Add. (A value between −1 and 1 denoted “additivity”) | Syn. (Loewe volumes greater than 1 denoted “synergy”) | Add. (A value between −1 and 1 denoted “additivity”) | Add. (A value between −1 and 1 denoted “additivity”) | Syn. (Loewe volumes greater than 1 denoted “synergy”) | Syn. (Loewe volumes greater than 1 denoted “synergy”) | Syn. (Loewe volumes greater than 1 denoted “synergy”) | Add. (A value between −1 and 1 denoted “additivity”) | Add. (A value between −1 and 1 denoted “additivity”) | Add. (A value between −1 and 1 denoted “additivity”) | Syn. (Loewe volumes greater than 1 denoted “synergy”) | Add. (A value between −1 and 1 denoted “additivity”)
